From patent US12637427B2, “ALDH-2 inhibitor compounds and methods of use” (Amygdala Neurosciences, Inc., priority 2022, dated 2026)

How the values were obtained:
[1] = biological target: T1, MAO-A (Homo sapiens, UniProt P21397); assay: MAO-A inhibition assay; format: biochemical; conditions: 20 min pre-incubation; 10 μM = highest concentration tested; read-out: Enzymatic Assays IC50 MAO-A
T1 sequence (P21397 1-527): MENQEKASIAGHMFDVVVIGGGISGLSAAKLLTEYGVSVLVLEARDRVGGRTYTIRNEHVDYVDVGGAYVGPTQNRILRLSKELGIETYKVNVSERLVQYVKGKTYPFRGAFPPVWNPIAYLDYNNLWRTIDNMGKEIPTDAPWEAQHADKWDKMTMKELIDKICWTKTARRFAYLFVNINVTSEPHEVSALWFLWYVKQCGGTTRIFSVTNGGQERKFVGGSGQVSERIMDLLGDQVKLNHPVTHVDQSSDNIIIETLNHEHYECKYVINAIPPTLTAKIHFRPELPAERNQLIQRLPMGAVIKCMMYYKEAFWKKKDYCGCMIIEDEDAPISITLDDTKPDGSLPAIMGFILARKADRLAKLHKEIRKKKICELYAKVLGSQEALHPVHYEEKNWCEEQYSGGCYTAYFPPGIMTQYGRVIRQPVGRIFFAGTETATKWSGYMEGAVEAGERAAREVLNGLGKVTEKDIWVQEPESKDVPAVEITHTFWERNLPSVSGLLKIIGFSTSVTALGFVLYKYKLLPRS
Protocol: (§1) D. MAO-A and MAO-B inhibition assays: MAO assays included luminogenic MAO substrate, reaction buffers, Luciferin Detection, and a reconstitution buffer with esterase. The MAO reaction mixture used in the assay included microsome contained MAO-A (2 μg) or MAO-B (10 μg), 160 μM substrate for MAO-A or 16 μM substrate for MAO-B, MAO-A buffer (100 mM Hepes buffer, pH 7.5, 5% glycerol) or MAO-B buffer (100 mM Hepes, pH 7.5, 5% glycerol, 10% dimethyl sulfoxide) in a final volume of 30 μL. After 20 minutes of pre-incubation of the MAO-A or MAO-B enzyme with the test ALDH-2 inhibitor compound, the reaction was initiated by adding enzyme substrate and the […] reaction was allowed to proceed for 60 minutes. Reconstituted Luciferin Detection Reagent (30 μL) was then added is added to simultaneously stop the MAO reaction and convert the methyl ester derivative to luciferin and produce light. The amount of light produced is directly proportional to the activity of MAO. The mixtures were further incubated for 20 minutes and activity of the enzyme was determined using Perkin-Elmer Envision Reader.

[2] = biological target: T2, MAO-B (Homo sapiens, UniProt P27338); assay: MAO-B inhibition assay; format: biochemical; conditions: 20 min pre-incubation; 10 μM = highest concentration tested; read-out: Enzymatic Assays IC50 MAO-B
T2 sequence (P27338 1-520): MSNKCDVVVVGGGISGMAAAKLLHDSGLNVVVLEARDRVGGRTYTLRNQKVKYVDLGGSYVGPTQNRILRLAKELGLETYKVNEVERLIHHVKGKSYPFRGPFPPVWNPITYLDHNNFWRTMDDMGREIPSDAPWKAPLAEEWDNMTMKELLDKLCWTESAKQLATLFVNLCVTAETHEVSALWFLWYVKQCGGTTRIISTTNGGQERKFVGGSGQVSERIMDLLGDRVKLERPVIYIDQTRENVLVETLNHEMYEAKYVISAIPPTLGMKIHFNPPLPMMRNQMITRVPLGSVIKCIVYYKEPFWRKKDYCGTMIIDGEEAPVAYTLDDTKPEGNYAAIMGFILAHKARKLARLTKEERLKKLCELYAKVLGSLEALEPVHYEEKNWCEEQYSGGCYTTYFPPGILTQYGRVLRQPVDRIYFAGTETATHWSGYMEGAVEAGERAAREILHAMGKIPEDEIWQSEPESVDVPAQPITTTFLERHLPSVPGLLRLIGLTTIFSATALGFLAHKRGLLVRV
Protocol: as §1

Row | Structure (SMILES) | IC50 [1] [µM] | IC50 [2] [µM]
1 | O=C(NCc1ccc(-c2cccc(=O)[nH]2)nc1)c1ccccc1Cl [(1l), 2-chloro-N-((6′-oxo-1′,6′-dihydro-[2,2′-bipyridin]-5-yl)methyl)benzamide] | > 10 | > 10
2 | Cc1nccc(Br)c1C(=O)NCc1ccc(-c2[nH]c(=O)ccc2F)cc1 [(1g), 4-Bromo-N-(4-(3-fluoro-6-oxo-1,6-dihydropyridin-2-yl)benzyl)-2-methylnicotinamide] | > 10 | > 10
3 | Cc1cccc(Cl)c1C(=O)NCc1ccc(-c2cccc(=O)[nH]2)nc1 [(1k), 2-Chloro-6-methyl-N-((6′-oxo-1′,6′-dihydro-[2,2′-bipyridin]-5-yl)methyl)benzamide] | > 10 | > 10
4 | O=C(NCc1ccc(-c2cccc(=O)[nH]2)cc1)c1ccccc1Cl [(1b), 2-Chloro-N-(4-(6-oxo-1,6-dihydropyridin-2-yl)benzyl)benzamide] | > 10 | > 10
5 | Cc1nccc(Cl)c1C(=O)NCc1ccc(-c2cccc(=O)[nH]2)cc1 [(1c), 4-Chloro-2-methyl-N-(4-(6-oxo-1,6-dihydropyridin-2-yl)benzyl)nicotinamide] | > 10 | > 10
6 | Cc1cccc(Cl)c1C(=O)NCc1ccc(-c2cccc(=O)[nH]2)cc1 [(1a), 2-Chloro-6-methyl-N-(4-(6-oxo-1,6-dihydropyridin-2-yl)benzyl)benzamide] | > 10 | > 10
